target: human PAD4 (Homo sapiens (Human), UniProt Q9UM07); test: In Vitro PAD4 BAEE Biochemical Assay; conditions: recombinant PAD4 5 nM, 2 mM calcium chloride, 3 mM BAEE substrate; geometric mean of multiple experiments
Procedure, shortened: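 Deimination of BAEE substrate (3 mM) measured as ammonia via o-phthalaldehyde–DTT isoindole fluorescence, 405/535 nm. Tag-free bacterially expressed human PAD4 at 5 nM with 2 mM calcium chloride, pH 7.6 MOPS buffer, 30 min compound preincubation then 2 h reaction, both at 25 °C.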

Sequence of human PAD4 (Q9UM07 2-663): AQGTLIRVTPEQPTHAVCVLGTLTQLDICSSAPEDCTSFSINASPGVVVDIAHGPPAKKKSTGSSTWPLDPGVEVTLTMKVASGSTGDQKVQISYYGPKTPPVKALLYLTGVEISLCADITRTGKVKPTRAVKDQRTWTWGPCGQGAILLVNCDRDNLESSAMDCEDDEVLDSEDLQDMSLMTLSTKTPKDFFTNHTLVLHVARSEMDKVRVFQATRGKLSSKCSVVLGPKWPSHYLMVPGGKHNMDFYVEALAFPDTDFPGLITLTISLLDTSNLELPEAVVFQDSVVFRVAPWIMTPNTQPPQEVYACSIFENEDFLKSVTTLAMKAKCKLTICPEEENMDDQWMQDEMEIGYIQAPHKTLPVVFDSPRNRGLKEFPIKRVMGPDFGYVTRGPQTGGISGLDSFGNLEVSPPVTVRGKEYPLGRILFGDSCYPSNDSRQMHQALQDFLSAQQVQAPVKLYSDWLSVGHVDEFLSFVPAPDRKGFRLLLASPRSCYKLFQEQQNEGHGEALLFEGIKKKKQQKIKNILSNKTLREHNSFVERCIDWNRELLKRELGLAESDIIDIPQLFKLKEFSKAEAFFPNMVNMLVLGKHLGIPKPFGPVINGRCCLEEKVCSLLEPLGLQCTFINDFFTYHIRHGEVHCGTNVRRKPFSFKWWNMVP

| SMILES | IC50 [nM] |
| --- | --- |
| COc1cc(C(=O)N2C[C@H](N)[C@@H]3CC[C@H]2C3)cc2nc(-c3cc4ccc([C@@H](C)NC(=O)C56CC(F)(C5)C6)nc4n3CC3CC3)n(C3CC3)c12 [Example 317, N-((R)-1-(2-(5-((1S,4R,5R)-4-amino-2-azabicyclo[3.2.1]octane-2-carbonyl)-1-cyclopropyl-7-methoxy-1H-benzo[d]imidazol-2-yl)-1-(cyclopropylmethyl)-1H-pyrrolo[2,3-b]pyridin-6-yl)ethyl)-3-fluorobicyclo[1.1.1]pentane-1-carboxamide] | 124 |
| COc1cc(C(=O)N2C[C@H](N)[C@@H]3CC[C@H]2C3)cc2nc(-c3cc4ccc([C@@H](C)NC(=O)c5cnc(C(F)(F)F)cn5)nc4n3CC3CC3)n(C)c12 [Example 318, N-((R)-1-(2-(5-((1S,4R,5R)-4-amino-2-azabicyclo[3.2.1]octane-2-carbonyl)-7-methoxy-1-methyl-1H-benzo[d]imidazol-2-yl)-1-(cyclopropylmethyl)-1H-pyrrolo[2,3-b]pyridin-6-yl)ethyl)-5-(trifluoromethyl)pyrazine-2-carboxamide] | 252 |
| COc1cc(C(=O)N2C[C@H](N)[C@@H]3CC[C@H]2C3)cc2nc(-c3cc4ccc([C@@H](C)NC(=O)c5cnn(C6CC6)c5)nc4n3CC3CC3)n(C)c12 [Example 319, N-((R)-1-(2-(5-((1S,4R,5R)-4-amino-2-azabicyclo[3.2.1]octane-2-carbonyl)-7-methoxy-1-methyl-1H-benzo[d]imidazol-2-yl)-1-(cyclopropylmethyl)-1H-pyrrolo[2,3-b]pyridin-6-yl)ethyl)-1-cyclopropyl-1H-pyrazole-4-carboxamide] | 58 |
| COc1cc(C(=O)N2C[C@H](N)[C@@H]3CC[C@H]2C3)cc2nc(-c3cc4ccc([C@@H](C)NC(=O)c5cnn(C(F)(F)F)c5)nc4n3CC3CC3)n(C)c12 [Example 320, N-((R)-1-(2-(5-((1S,4R,5R)-4-amino-2-azabicyclo[3.2.1]octane-2-carbonyl)-7-methoxy-1-methyl-1H-benzo[d]imidazol-2-yl)-1-(cyclopropylmethyl)-1H-pyrrolo[2,3-b]pyridin-6-yl)ethyl)-1-(trifluoromethyl)-1H-pyrazole-4-carboxamide] | 82.6 |
| COc1cc(C(=O)N2C[C@H](N)[C@@H]3CC[C@H]2C3)cc2nc(-c3cc4ccc([C@@H](C)NC(=O)C(C)(C)OC)nc4n3CC3CC3)n(C)c12 [Example 321, N-((R)-1-(2-(5-((1S,4R,5R)-4-amino-2-azabicyclo[3.2.1]octane-2-carbonyl)-7-methoxy-1-methyl-1H-benzo[d]imidazol-2-yl)-1-(cyclopropylmethyl)-1H-pyrrolo[2,3-b]pyridin-6-yl)ethyl)-2-methoxy-2-methylpropanamide] | 72 |
| COc1cc(C(=O)N2C[C@H](N)[C@@H]3CC[C@H]2C3)cc2nc(-c3cc4ccc([C@@H](C)NC(=O)C5(OC)CC5)nc4n3CC3CC3)n(C)c12 [Example 322, N-((R)-1-(2-(5-((1S,4R,5R)-4-amino-2-azabicyclo[3.2.1]octane-2-carbonyl)-7-methoxy-1-methyl-1H-benzo[d]imidazol-2-yl)-1-(cyclopropylmethyl)-1H-pyrrolo[2,3-b]pyridin-6-yl)ethyl)-1-methoxycyclopropane-1-carboxamide] | 62 |
| COc1cc(C(=O)N2C[C@H](N)[C@@H]3CC[C@H]2C3)cc2nc(-c3cc4ccc([C@@H](C)NC(=O)C(C)(C)C(F)F)nc4n3CC3CC3)n(C)c12 [Example 323, N-((R)-1-(2-(5-((1S,4R,5R)-4-amino-2-azabicyclo[3.2.1]octane-2-carbonyl)-7-methoxy-1-methyl-1H-benzo[d]imidazol-2-yl)-1-(cyclopropylmethyl)-1H-pyrrolo[2,3-b]pyridin-6-yl)ethyl)-3,3-difluoro-2,2-dimethylpropanamide] | 84.6 |
| COc1cc(C(=O)N2C[C@H](N)[C@@H]3CC[C@H]2C3)cc2nc(-c3cc4ccc([C@@H](C)NC(=O)C5(C(F)F)CC5)nc4n3CC3CC3)n(C)c12 [Example 324, N-((R)-1-(2-(5-((1S,4R,5R)-4-amino-2-azabicyclo[3.2.1]octane-2-carbonyl)-7-methoxy-1-methyl-1H-benzo[d]imidazol-2-yl)-1-(cyclopropylmethyl)-1H-pyrrolo[2,3-b]pyridin-6-yl)ethyl)-1-(difluoromethyl)cyclopropane-1-carboxamide] | 81.1 |
| COc1cc(C(=O)N2C[C@H](N)[C@@H]3CC[C@H]2C3)cc2nc(-c3cc4ccc([C@@H](C)NC(=O)C(C)(C)F)nc4n3CC3CC3)n(C)c12 [Example 325, N-((R)-1-(2-(5-((1S,4R,5R)-4-amino-2-azabicyclo[3.2.1]octane-2-carbonyl)-7-methoxy-1-methyl-1H-benzo[d]imidazol-2-yl)-1-(cyclopropylmethyl)-1H-pyrrolo[2,3-b]pyridin-6-yl)ethyl)-2-fluoro-2-methylpropanamide] | 91.8 |
| COc1cc(C(=O)N2C[C@H](N)[C@@H]3CC[C@H]2C3)cc2nc(-c3cc4ccc([C@@H](C)NC(=O)C5(F)CC5)nc4n3CC3CC3)n(C)c12 [Example 326, N-((R)-1-(2-(5-((1S,4R,5R)-4-amino-2-azabicyclo[3.2.1]octane-2-carbonyl)-7-methoxy-1-methyl-1H-benzo[d]imidazol-2-yl)-1-(cyclopropylmethyl)-1H-pyrrolo[2,3-b]pyridin-6-yl)ethyl)-1-fluorocyclopropane-1-carboxamide] | 103 |
| COc1cc(C(=O)N2C[C@H](N)[C@@H]3CC[C@H]2C3)cc2nc(-c3cc4ccc([C@@H](C)NC(=O)C5(F)CCC5)nc4n3CC3CC3)n(C)c12 [Example 327, N-((R)-1-(2-(5-((1S,4R,5R)-4-amino-2-azabicyclo[3.2.1]octane-2-carbonyl)-7-methoxy-1-methyl-1H-benzo[d]imidazol-2-yl)-1-(cyclopropylmethyl)-1H-pyrrolo[2,3-b]pyridin-6-yl)ethyl)-1-fluorocyclobutane-1-carboxamide] | 88.4 |
| COc1cc(C(=O)N2C[C@H](N)[C@@H]3CC[C@H]2C3)cc2nc(-c3cc4ccc([C@@H](C)NC(=O)C5(C)CC(F)(F)C5)nc4n3CC3CC3)n(C)c12 [Example 328, N-((R)-1-(2-(5-((1S,4R,5R)-4-amino-2-azabicyclo[3.2.1]octane-2-carbonyl)-7-methoxy-1-methyl-1H-benzo[d]imidazol-2-yl)-1-(cyclopropylmethyl)-1H-pyrrolo[2,3-b]pyridin-6-yl)ethyl)-3,3-difluoro-1-methylcyclobutane-1-carboxamide] | 101 |
| COc1cc(C(=O)N2C[C@H](N)[C@@H]3CC[C@H]2C3)cc2nc(-c3cc4ccc([C@@H](C)NC(=O)C(C)(C)CC(F)(F)F)nc4n3CC3CC3)n(C)c12 [Example 329, N-((R)-1-(2-(5-((1S,4R,5R)-4-amino-2-azabicyclo[3.2.1]octane-2-carbonyl)-7-methoxy-1-methyl-1H-benzo[d]imidazol-2-yl)-1-(cyclopropylmethyl)-1H-pyrrolo[2,3-b]pyridin-6-yl)ethyl)-4,4,4-trifluoro-2,2-dimethylbutanamide] | 129 |
| COc1cc(C(=O)N2C[C@H](N)[C@@H]3CC[C@H]2C3)cc2nc(-c3cc4ccc([C@@H](C)NC(=O)C(C)(C)C)nc4n3CC(C)(C)O)n(C)c12 [Example 330, N-((R)-1-(2-(5-((1S,4R,5R)-4-amino-2-azabicyclo[3.2.1]octane-2-carbonyl)-7-methoxy-1-methyl-1H-benzo[d]imidazol-2-yl)-1-(2-hydroxy-2-methylpropyl)-1H-pyrrolo[2,3-b]pyridin-6-yl)ethyl)pivalamide] | 253 |
